Measurements taken from patent US20060073541A1, “Lipophilic dyes and their application for detection of myelin” (priority 2004, published 2006).

Legend:
myelin [1] = assay: Myelin staining in combination with NeuroTrace Nissl stains and DAPI on mouse brain cryosections; conditions: 500 nM dye, NeuroTrace Nissl stain 1:300, DAPI
Experimental: (§1) A 16 μm mouse brain cryosection, cross section through diencephalon, was rehydrated for 20 minutes in PBT (0.5 M phosphate-buffered saline containing 0.2% Triton X-100 and 0.2% BSA). The three dyes were mixed into the final stain solution (in PBS), such that there was a concentration of 500 nM of Compound 1, 1:300 dilution of NeuroTrace Red Nissl Stain, and 0.1 μg/ml DAPI. Sections were labeled in this combination for 20 minutes, then washed well in PBT prior to mounting in Prolong antifade mounting medium (Molecular Probes, Inc.). Images were collected on a Nikon E800 epifluorescence upright microscope using a Princeton MicroMax cooled CCD digital camera, MetaMorph acquisition software, and Adobe Photoshop image analysis software.
as §1, with “(0.5M” for “(0.5 M”, “nM” for “nM of”, “2,” for “1,”
12 μm thick mouse brain cryosections, either cross-sectioned through the mesencephalon or sagittal sections, were rehydrated and permeabilized for 20 minutes in PBT (PBS with 0.2% Triton X-100 and 0.2% BSA) then labeled 30 minutes with 500 nM Compound 4 in PBS. Sections were washed 3×10 minutes with PBT then labeled 20 minutes with NeuroTrace Green Nissl Stain (diluted 1:300 from stock). Sections were washed 3×5 minutes in PBS, labeled 1.5 minutes with 0.2 μg/mL DAPI, washed 3×5 minutes in PBS again, and mounted in Prolong Gold antifade mounting medium. Samples were compared to sections labeled with Compound 1 and Compound 2 as controls. Images were collected on a Nikon E800 epifluorescence upright microscope using a Princeton MicroMax cooled CCD digital camera, MetaMorph acquisition software, and Adobe Photoshop image analysis software.

myelin [2] = assay: Myelin staining of mouse brain cryosections, label pattern comparison; conditions: for labeling of myelin (selectivity): 1 μM or 500 nM in PBS; for myelin label pattern / non-specific background labeling / single axon labeling: 16 μm mouse brain cryosections, dyes 500 nM 20 minutes; for myelin label pattern: sagittal and cross sections, anti-MBP 5 μg/ml overnight; for emission wavelength (Em) / excitation wavelength (Ex): dye on labeled mouse brain cryosections
Experimental: In an exemplary embodiment, the present method stains and detects myelin in brain tissue sections that have been immobilized on a glass slide. In this instance a protocol for labeling brain cryosections comprises: • 1. Rehydrate and/or Permeabilize. Bring tissue sections on slides to room temperature, then rehydrate in either PBS (phosphate-buffered saline, 0.05M, pH 7.4) or PBT (PBS+0.2% Triton X-100) for at least 20 minutes. Permeabilization with Triton X-100 is not necessary for labeling using the present lipophilic dyes, but is likely necessary for any other counterstains or antibodies to be used. • 2. Prepare Label Solution. Prepare the labeling solution by diluting the stock solution 300-fold with PBS to make a final recommended concentration of 500 nM dye. • 3. Label Step. Flood the section with labeling solution and stain for 20 minutes at room temperature. • 4. Wash. When labeling is complete, remove solution, rinse in PBS, and wash 3×10 minutes with PBS. • 5. Counterstaining and Mounting. At this point tissues can be counterstained as necessary, or mounted with an aqueous antifade mounting medium such as ProLong or ProLong Gold reagent.
Use of this antibody allows for specific labeling with which to compare the present lipophilic dyes and chromogenic method label patterns. […] Tissue was sectioned on a cryostat and mounted on Plus slides and stored at −80° C. Upon use, tissue sections were brought to room temperature and rehydrated in PBT (0.5 M phosphate-buffered saline containing 0.2% Triton X-100 and 0.2% BSA) for 30 minutes. Sections were blocked for 1 hour in 5% normal goat serum/3% BSA/PBT, then labeled overnight at 4° using 5 μg/ml rat anti-MBP primary antibody from Chemicon (MAB386). After washing in PBT, tissues were washed in Image-iT FX signal enhancer (136933, Molecular Probes, Inc., Eugene, Oreg.) for 30 minutes, then washed again in PBT. Sections were incubated in Alexa Fluor 488 goat anti-rat secondary antibody (A11006, Molecular Probes, Inc.) for 2 hours, washed in PBT, and mounted in ProLong antifade solution (P7481, Molecular Probes, Inc.). Images were collected on a Nikon E800 epifluorescence upright microscope using a Princeton MicroMax cooled CCD digital camera, MetaMorph acquisition software, and Adobe Photoshop image analysis software (Ex 495/Em 519, FITC Filter Set).
Other than antibody labeling techniques, myelin labeling is traditionally performed using long and complicated chromogenic (non-fluorescent) dye protocols. One of the most common is the Loyez Technique. A more recent, and more specific method is Schmued's Gold Chloride Technique. These two methods were used for comparison to the present dyes. • I. Schmued's Gold Chloride Technique. Based on a method by Laurence C. Schmued [1990. A rapid, sensitive histochemical stain for myelin in frozen brain sections. J. Histochem Cytochem. 38(5): 717-720]. Tissues were rehydrated in PBT for 30 minutes, then labeled for 3.5 hours in 0.2% gold chloride in 0.02 M neutral phosphate buffer with 0.9% sodium chloride. After a water rinse, tissues were post-fixed for 5 minutes in 2.5% sodium thiosulfate, rinsed in running tap water for 30 minutes, and mounted in mowiol. Images were collected using transmitted light on the system outlined in part A of this example. Myelin was labeled a brown-red color. […] Loyez Technique. Adapted from H. C. Cook. 1974. […] London: Butterworths. pp. 161-162. Tissues were rehydrated and permeabilized 30 minutes in PBT, then treated with 4% iron alum overnight at room temperature. After a water wash, tissues were stained overnight in a 10% alcoholic haematoxylin solution with lithium carbonate at room temperature. After two 10-minute water washes, tissues were destained for approximately 20 seconds in 4% iron alum, and washed in water. After a final wash in borax-ferricyanide to colorize the myelin blue-black, tissues were washed in water and mounted in mowiol. Images were scanned as in section B. I. Of this example. […]

myelin [3] = assay: Demyelinated mouse model test: control versus shiverer mouse brain cryosections
Experimental: To illustrate the use of the present dyes for studying myelin diseases such as multiple sclerosis, adrenoleukodystrophy, Guillain-Barre syndrome, and others, Compound 1 was compared against rat anti-myelin basic protein (anti-MBP) primary antibody on control mouse brains versus shiverer mouse brain. […] Brain tissues were cryosectioned at 16 μm and mounted on PLUS slides. Control and shiverer tissues were treated either with anti-MBP primary and Alexa Fluor 488 goat anti-rat secondary or Compound 1. Tissues treated with the antibody were rehydrated and permeabilized in PBT (0.05 M phosphate buffered saline with 0.2% Triton X-100 and 0.2% bovine serum albumin (BSA)) for 20 minutes, then blocked in 5% normal goat serum/3% BSA/PBT for 1 hour. Tissues were then incubated overnight at 4° C. with 5 μg/mL rat anti-MBP (Chemicon, MAB386) in blocking solution. After washing 3×10 minutes in PBT, they were then incubated for 2 hours with 5 μg/mL Alexa Fluor 488 goat anti-rat secondary at room temperature. After further washing 3×10 minutes in PBT, tissues were counterstained with 0.2 μg/ml DAPI, washed 3×5 minutes in PBT, and mounted with ProLong antifade mounting medium (Invitrogen P36930). Tissues that were labeled with Compound 1 were rehydrated and permeabilized as above, then labeled 20 minutes with 500 nM Compound 1 and 0.2 μg/mL DAPI (together) in PBT. Tissues were washed 3×10 minutes PBT, then mounted as above. Images were collected on a Nikon E800 epifluorescence upright microscope using a Princeton MicroMax cooled CCD digital camera, an Omega XF100-2 FITC filter set, MetaMorph acquisition software, and Adobe Photoshop image analysis software. […] Myelin labeling was negative, as expected, for shiverer mice for both anti-MBP and Compound 1, illustrating that the present dyes work as well as anti-MBP for demyelination determination.

myelin [4] = assay: Detection of myelin in combination with antibodies (anti-GFAP) and DAPI on mouse brain cryosection
Experimental: To test whether use of Compound 1 interrupts antibody binding, Compound 1 was used in conjunction with anti-GFAP on mouse brain sections. A 16 μm mouse brain cryosection, cross-section through the rostral mesencephalon, was rehydrated and permeabilized in PBT (0.05 M phosphate buffered saline with 0.2% Triton X-100 and 0.2% BSA) for 20 minutes, the washed for 30 minutes with Image-iT FX Signal Enhancer (Molecular Probes, Inc.) to block non-specific Alexa Fluor dye binding to myelin. After washing in PBT, the section was blocked for 1 hour in 5% normal goat serum/0.2% Triton X-100/3% BSA, then incubated overnight at 4° C. in 5 μg/ml mouse anti-GFAP (glial fibrillary acidic protein) from Molecular Probes (A21282) in blocking buffer. Sections were washed well in PBT, then incubated in Alexa Fluor 680 goat anti-mouse secondary antibody (A21057, Molecular Probes, Inc.) for 2 hours. After washing in PBT, sections were labeled in 500 nM of Compound 1 for 20 minutes with 0.1 μg/ml DAPI. After a final wash in PBT, sections were mounted in Prolong antifade mountant (Molecular Probes, inc.). Images were collected on a Nikon E800 epifluorescence upright microscope using a Princeton MicroMax cooled CCD digital camera, MetaMorph acquisition software, and Adobe Photoshop image analysis software.

| SMILES | disruption of labels / compatibility with NeuroTrace Nissl stain and DAPI (myelin [1]) | label pattern in combination with NeuroTrace Nissl stain and DAPI (myelin [1]) | spectral qualities (myelin [2]; 12 μm mouse brain cryosections) | labeling of myelin (selectivity) (myelin [2]; 12 μm mouse brain cryosections) | concentration sufficient for labeling with minimal background (myelin [2]; 12 μm mouse brain cryosections, in PBS) [nM] | staining brightness compared with anti-MBP (myelin [3]; control mice brain) | myelin labeling in control mice (myelin [3]; control mice brain, 16 μm cryosections, 500 nM dye 20 minutes or 5 μg/mL anti-MBP overnight) | background labeling (myelin [3]; general membrane labeling) | myelin labeling in shiverer mice (myelin [3]; shiverer (demyelinated) mouse brain, 16 μm cryosections) | myelin label pattern (myelin [2]) | non-specific background labeling (myelin [2]) | single axon labeling (myelin [2]) | emission wavelength (Em) (myelin [2]) [nm] | excitation wavelength (Ex) (myelin [2]) [nm] | label pattern in conjunction with anti-GFAP (myelin [4]; 500 nM 20 minutes with 0.1 μg/ml DAPI after anti-GFAP / Alexa Fluor 680 secondary, rostral mesencephalon cross-section) | inhibition of staining pattern (myelin [4]; 500 nM dye with anti-GFAP antibody labeling) |
| --- | --- | --- | --- | --- | --- | --- | --- | --- | --- | --- | --- | --- | --- | --- | --- | --- |
| CCCCN(CCCC)c1ccc(C=CC=CC=Cc2cc[n+](CCC[N+](C)(C)C)cc2)cc1 [Compound 4] | compatible with NeuroTrace Green Nissl Stain labeling and DAPI labeling | label pattern comparable to the control dyes | comparable to Compound 2 | highly selective labeling of myelin | 500 |  |  |  |  |  |  |  |  |  |  |  |
| CCCCN(CCCC)c1ccc(C=Cc2cc[n+](CCC[N+](CC)(CC)CC)cc2)cc1 [Compound 1] | no evidence of disruption of any of the three labels | tracts in the fornix, fornix superior, capsula interna, and striatum |  | selective myelin labeling |  | twice as bright | labeled myelin in control mice | slight background labeling | negative | specific myelin labeling in expected axon bundles and tracts | some non-specific background labeling was visualized | single axon labeling was not seen | 594 | 479 | labeled axon tracts and bundles | no inhibition of staining pattern by either label |
| CCCCN(CCCC)c1ccc(C=CC=CC=Cc2cc[n+](CCC[N+](CC)(CC)CC)cc2)cc1 [Compound 2] | no evidence of disruption of any of the three labels | tracts in the fornix, fornix superior, capsula interna, and striatum |  | selective myelin labeling |  |  |  |  |  | specific myelin labeling in expected axon bundles and tracts | some non-specific background labeling was visualized | single axon labeling was not seen | 734 | 558 |  |  |
